Experimental data published in DBAASP.
Values after ≈ are worked out from the molar mass of the structure shown. Each block holds one compound with its values, some of them ahead of it.

Experiments:
Assay in all cases: ≥ marks a high value that may be exact or a test limit, other limits are often not marked, values filed in µg/mL are converted to µM
Streptococcus pyogenes = test system: Streptococcus pyogenes
Staphylococcus aureus = test system: Staphylococcus aureus
Pseudomonas aeruginosa = test system: Pseudomonas aeruginosa
Proteus mirabilis = test system: Proteus mirabilis
[1] = test system: Escherichia coli DH5alpha
[2] = test system: Escherichia coli ATCC 25922
[3] = test system: Pseudomonas aeruginosa ATCC 27853
Escherichia coli = test system: Escherichia coli
[4] = test system: Pseudomonas aeruginosa H188
[5] = test system: Bacillus subtilis DSM 347
[6] = test system: Pseudomonas aeruginosa KCTC 2513
[7] = test system: Bacillus subtilis KCTC 1021
[8] = test system: Staphylococcus aureus KCTC 1621
[9] = test system: Staphylococcus epidermidis KCTC 1917
[10] = test system: Bacillus subtilis KCTC 3068
[11] = test system: Salmonella typhimurium KCTC 1926
[12] = test system: Escherichia coli KCTC 2571
[13] = test system: Escherichia coli KCTC 2593
[14] = test system: Escherichia coli KCTC 1682
[15] = test system: Pseudomonas aeruginosa KCTC 1637
[16] = test system: Pseudomonas aeruginosa KCTC 2004
[17] = test system: Staphylococcus aureus KCTC 3881
[18] = test system: Bacillus subtilis KCTC 1022
[19] = test system: Staphylococcus aureus KCTC 1916
[20] = test system: Staphylococcus aureus ATCC 33591
[21] = test system: Klebsiella pneumoniae ATCC 700603
[22] = test system: Staphylococcus aureus ATCC 700699
[23] = test system: Staphylococcus aureus ATCC 29213
Escherichia coli UB1005 = test system: Escherichia coli UB1005
[24] = test system: Staphylococcus epidermidis
Candida albicans = test system: Candida albicans
[25] = test system: Staphylococcus aureus ATCC 25923
[26] = test system: Salmonella enterica serovar Typhimurium
[27] = test system: Pseudomonas aeruginosa H103

MIC (Streptococcus pyogenes): 0.479 µM (≈ 0.875 µg/mL)
MIC (Staphylococcus aureus): 5.48 µM (≈ 10 µg/mL)
MIC (Pseudomonas aeruginosa): > 35 µM
MIC (Proteus mirabilis): ≥ 35 µM
Structure (SMILES): NC(N)=NCCC[C@H](NC(=O)[C@H](CCCN=C(N)N)NC(=O)[C@H](CCCN=C(N)N)NC(=O)[C@H](CCCN=C(N)N)NC(=O)[C@H](CCCN=C(N)N)NC(=O)[C@H](CCCN=C(N)N)NC(=O)[C@H](CCCN=C(N)N)NC(=O)[C@H](CCCN=C(N)N)NC(=O)[C@H](Cc1c[nH]c2ccccc12)NC(=O)[C@H](Cc1c[nH]c2ccccc12)NC(=O)[C@@H](N)Cc1c[nH]c2ccccc12)C(=O)O [WWWRRRRRRRR]

MIC [1]: 2.72 µM (≈ 8.11 µg/mL)
MIC [2]: 2.72 µM (≈ 8.11 µg/mL)
MIC [3]: 10.9 µM (≈ 32.4 µg/mL)
MIC (Escherichia coli): 5.45 µM (≈ 16.2 µg/mL)
MIC [4]: 1.36 µM (≈ 4.06 µg/mL)
Structure (SMILES): CC[C@H](C)[C@H](NC(=O)[C@H](C)NC(=O)[C@H](CCCCN)NC(=O)[C@H](CC(C)C)NC(=O)[C@H](C)NC(=O)[C@@H](NC(=O)[C@H](Cc1cnc[nH]1)NC(=O)[C@H](CC(C)C)NC(=O)[C@H](CO)NC(=O)[C@@H](NC(=O)[C@H](CCCCN)NC(=O)[C@H](CCCCN)NC(=O)[C@H](C)NC(=O)[C@H](CO)NC(=O)[C@H](CCCCN)NC(=O)[C@H](Cc1ccccc1)NC(=O)[C@@H](NC(=O)[C@H](CCCCN)NC(=O)[C@H](CC(C)C)NC(=O)[C@H](Cc1ccccc1)NC(=O)[C@H](CO)NC(=O)[C@H](CCCCN)NC(=O)[C@H](Cc1c[nH]c2ccccc12)NC(=O)[C@H](CCCCN)NC(C)=O)[C@@H](C)O)[C@@H](C)O)[C@@H](C)O)C(=O)N[C@@H](CO)C(=O)N[C@@H](CO)C(N)=O [KWKSFLKTFKSAKKTSLHTALKAISS]

MIC [1]: 0.8 µM (≈ 2.01 µg/mL)
MIC [5]: 1.6 µM (≈ 4.02 µg/mL)
Structure (SMILES): CC[C@H](C)[C@H](NC(=O)CN)C(=O)NCC(=O)N[C@@H](CCCCN)C(=O)N[C@@H](Cc1ccccc1)C(=O)N[C@H](C(=O)N[C@@H](Cc1cnc[nH]1)C(=O)N[C@@H](C)C(=O)N[C@H](C(=O)N[C@@H](CCCCN)C(=O)N[C@@H](CCCCN)C(=O)N[C@@H](Cc1c[nH]c2ccccc12)C(=O)NCC(=O)N[C@@H](CCCCN)C(=O)N[C@H](C(=O)N[C@@H](Cc1ccccc1)C(=O)N[C@H](C(=O)NCC(=O)N[C@@H](CCC(=O)O)C(=O)N[C@H](C(=O)N[C@@H](C)C(=O)N[C@@H](CCCCN)C(=O)N[C@@H](CO)C(N)=O)[C@@H](C)CC)[C@@H](C)CC)[C@@H](C)O)C(C)C)[C@@H](C)CC [GIGKFIHAVKKWGKTFIGEIAKS]

MIC [6]: 4 µM (≈ 10.4 µg/mL)
MIC [7]: 2 µM (≈ 5.22 µg/mL)
MIC [8]: 2 µM (≈ 5.22 µg/mL)
MIC [9]: 2 µM (≈ 5.22 µg/mL)
MIC [10]: 2 µM (≈ 5.22 µg/mL)
MIC [11]: 2 µM (≈ 5.22 µg/mL)
MIC [12]: 2 µM (≈ 5.22 µg/mL)
MIC [13]: 2 µM (≈ 5.22 µg/mL)
MIC [14]: 2 µM (≈ 5.22 µg/mL)
MIC [15]: 4 µM (≈ 10.4 µg/mL)
MIC [16]: 4 µM (≈ 10.4 µg/mL)
MIC [17]: 2 µM (≈ 5.22 µg/mL)
MIC [18]: 2 µM (≈ 5.22 µg/mL)
MIC [19]: 2 µM (≈ 5.22 µg/mL)
Structure (SMILES): CC[C@H](C)[C@H](NC(=O)CNC(=O)[C@H](CCCN=C(N)N)NC(=O)[C@H](Cc1ccccc1)NC(=O)[C@@H](NC(=O)[C@H](Cc1cnc[nH]1)NC(=O)[C@H](Cc1cnc[nH]1)NC(=O)[C@H](Cc1ccccc1)NC(=O)[C@@H](N)Cc1c[nH]c2ccccc12)[C@@H](C)CC)C(=O)N[C@H](C(=O)N[C@@H](Cc1cnc[nH]1)C(=O)N[C@H](C(=O)NCC(=O)N[C@@H](CCCCN)C(=O)N[C@H](C(=O)N[C@H](C(=O)N[C@@H](Cc1cnc[nH]1)C(=O)N[C@@H](CCCN=C(N)N)C(=O)N[C@@H](CC(C)C)C(=O)N[C@H](C(=O)N[C@H](C(=O)NCC(=O)O)[C@@H](C)O)C(C)C)[C@@H](C)CC)[C@@H](C)O)C(C)C)C(C)C [WFHHIFRGIVHVGKTIHRLVTG]

MIC [20]: 25 µM (≈ 64.8 µg/mL)
MIC [2]: 6.25 µM (≈ 16.2 µg/mL)
MIC [21]: 25 µM (≈ 64.8 µg/mL)
MIC [3]: 50 µM (≈ 130 µg/mL)
MIC [22]: ≥ 50 µM
MIC [23]: 100 µM (≈ 259 µg/mL)
Structure (SMILES): CC[C@H](C)[C@H](NC(=O)[C@H](CC(=O)O)NC(=O)[C@H](CCCCN)NC(=O)[C@H](C)NC(=O)[C@H](C)NC(=O)CNC(=O)[C@H](CCCCN)NC(=O)[C@H](CC(C)C)NC(=O)[C@@H](NC(=O)[C@H](CC(=O)O)NC(=O)[C@@H](NC(=O)[C@@H](NC(=O)CN)C(C)C)C(C)C)[C@@H](C)CC)C(=O)N[C@@H](CC(C)C)C(=O)NCC(=O)N[C@@H](Cc1cnc[nH]1)C(=O)N[C@@H](CC(C)C)C(=O)N[C@@H](C)C(=O)N[C@@H](CO)C(=O)N[C@@H](CCCCN)C(=O)N[C@H](C(=O)N[C@@H](CCSC)C(=O)N[C@@H](CC(N)=O)C(=O)N[C@@H](CCCCN)C(=O)N[C@@H](CC(C)C)C(N)=O)C(C)C [GVVDILKGAAKDILGHLASKVMNKL]

MIC [20]: ≥ 100 µM
MIC [2]: > 100 µM
MIC [21]: > 100 µM
MIC [3]: > 100 µM
MIC [22]: ≥ 100 µM
MIC [23]: > 100 µM
Structure (SMILES): CC[C@H](C)[C@H](NC(=O)[C@H](CC(=O)O)NC(=O)[C@H](CCCCN)NC(=O)[C@H](C)NC(=O)[C@H](C)NC(=O)CNC(=O)[C@H](CCCCN)NC(=O)[C@H](CC(C)C)NC(=O)[C@H](C)NC(=O)[C@H](CC(=O)O)NC(=O)[C@@H](NC(=O)[C@@H](NC(=O)CN)C(C)C)C(C)C)C(=O)N[C@@H](C)C(=O)NCC(=O)N[C@@H](Cc1cnc[nH]1)C(=O)N[C@@H](CC(C)C)C(=O)N[C@@H](C)C(=O)N[C@@H](CO)C(=O)N[C@@H](CCCCN)C(=O)N[C@H](C(=O)N[C@@H](CCSC)C(=O)N[C@@H](CC(N)=O)C(=O)N[C@@H](CCCCN)C(=O)N[C@@H](CC(C)C)C(N)=O)C(C)C [GVVDALKGAAKDIAGHLASKVMNKL]

MIC (Escherichia coli UB1005): 4.13 µM (≈ 6 µg/mL)
MIC [24]: 2.07 µM (≈ 3 µg/mL)
MIC (Candida albicans): 34.4 µM (≈ 50 µg/mL)
MIC [25]: 34.4 µM (≈ 50 µg/mL)
MIC [26]: ≥ 34.4 µM
MIC [27]: ≥ 34.4 µM
Structure (SMILES): CC[C@H](C)[C@H](NC(=O)[C@H](Cc1c[nH]c2ccccc12)NC(=O)[C@H](CC(C)C)NC(=O)[C@H](CCCN=C(N)N)NC(=O)[C@@H](N)C(C)C)C(=O)N[C@@H](CCCN=C(N)N)C(=O)N[C@H](C(=O)N[C@@H](C)C(=O)N[C@H](C(=O)N[C@H](C(=O)N[C@@H](CCCN=C(N)N)C(=O)N[C@@H](C)C(N)=O)[C@@H](C)CC)C(C)C)C(C)C [VRLWIRVAVIRA]

MIC (Streptococcus pyogenes): 0.497 µM (≈ 1 µg/mL)
MIC (Staphylococcus aureus): 5.96 µM (≈ 12 µg/mL)
MIC (Pseudomonas aeruginosa): > 31.8 µM
MIC (Proteus mirabilis): 31.8 µM (≈ 64 µg/mL)
Structure (SMILES): NC(N)=NCCC[C@H](NC(=O)[C@H](Cc1c[nH]c2ccccc12)NC(=O)[C@H](CCCN=C(N)N)NC(=O)[C@H](CCCN=C(N)N)NC(=O)[C@H](Cc1c[nH]c2ccccc12)NC(=O)[C@H](CCCN=C(N)N)NC(=O)[C@H](CCCN=C(N)N)NC(=O)[C@H](Cc1c[nH]c2ccccc12)NC(=O)[C@H](CCCN=C(N)N)NC(=O)[C@H](CCCN=C(N)N)NC(=O)[C@H](Cc1c[nH]c2ccccc12)NC(=O)[C@@H](N)CCCN=C(N)N)C(=O)O [RWRRWRRWRRWR]
